Assay results as given in patent publication US6525001B1, “Substituted pyrimidine and pyridine herbicides” (Mid-American Commercialization Corporation, priority 1997, dated 2003).

Assays:
Type in all cases: in vivo
Set-up in all cases: key: 0 is no effect; 10 is complete control
[1] = system: blackgrass (Alopecurus myosuroides); assay: Test B pre-/postemergence
How it was run: (§1)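 Response scores run from 0, meaning no effect, to 10, meaning complete control, assigned by eye relative to controls twelve to sixteen days after spraying. Treatment was both preemergence on planted seed and postemergence on plants at the 1- to 4-leaf stage.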

[2] = system: broadleaf signalgrass (Brachiaria decumbens); assay: Test B pre-/postemergence
How it was run: as §1

[3] = system: bamyardgrass (Echinochloa crus-galli); assay: Test B flood test
How it was run: (§2)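 Each value is a visual injury score relative to controls, with 10 meaning complete control and 0 no effect. Evaluation took place twelve to sixteen days after the 2-leaf-stage plants were treated and kept in the greenhouse.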

[4] = system: duck salad (Heteranthera limosa); assay: Test B flood test
How it was run: as §2

rice (Oryza sativa) = assay: Test B flood test
How it was run: as §2

[5] = system: smallflower flatsedge (Cyperus difformis); assay: Test B flood test
How it was run: as §2

[6] = Rate 62 g/ha, Postemergence (flood test)
[7] = Rate 125 g/ha, Postemergence, flood test
[8] = Rate 250 g/ha, Postemergence (flood test species)
[9] = Rate 500 g/ha, Postemergence (flood test species)
[10] = Rate 125 g/ha, Postemergence section (flood test species)

Row | SMILES | Plant response rating, Blackgrass ([1]; Rate 62 g/ha, Postemergence) | Blackgrass plant response rating ([1]; Rate 62 g/ha, Preemergence) | Plant response rating, Blackgrass ([1]; Rate 125 g/ha, Postemergence) | Blackgrass plant response rating ([1]; Rate 125 g/ha, Preemergence) | Plant response rating, Blackgrass ([1]; Rate 250 g/ha, Postemergence) | Plant response rating, B. signalgrass ([2]; Rate 62 g/ha, Postemergence) | B. signalgrass plant response rating ([2]; Rate 62 g/ha, Preemergence) | Plant response rating, B. signalgrass ([2]; Rate 125 g/ha, Postemergence) | B. signalgrass plant response rating ([2]; Rate 125 g/ha, Preemergence) | Plant response rating, B. signalgrass ([2]; Rate 250 g/ha, Postemergence) | Plant response rating, Barnyardgrass [3, 6] | Plant response rating, Barnyardgrass [3, 7] | Plant response rating, Barnyardgrass [3, 8] | Plant response rating, Ducksalad [4, 6] | Plant response rating, Ducksalad [4, 7] | Plant response rating, Ducksalad [4, 8] | Plant response rating, Rice (rice (Oryza sativa); [6]) | Plant response rating, Rice (rice (Oryza sativa); [8]) | Plant response rating, S. Flatsedge [5, 6] | Plant response rating, S. Flatsedge [5, 8] | also measured
1 | Cc1cnc(-c2ccc(C(F)(F)F)cc2)nc1Cn1cnc(C(F)(F)F)c1 [Compound 10] | 1 | 1 | 1 | 2 | 3 | 2 | 1 | 3 | 1 | 3 | 1 | 2 | 3 | 1 | 1 | 3 | 0 | 2 | 6 | 9 | Plant response rating, Blackgrass ([1]; Rate 250 g/ha, Preemergence): 2; Plant response rating, Blackgrass ([1]; Rate 500 g/ha, Postemergence): 3; Plant response rating, Blackgrass ([1]; Rate 500 g/ha, Preemergence): 3; Plant response rating, B. signalgrass ([2]; Rate 250 g/ha, Preemergence): 2; Plant response rating, B. signalgrass ([2]; Rate 500 g/ha, Postemergence): 3; Plant response rating, B. signalgrass ([2]; Rate 500 g/ha, Preemergence): 4; Plant response rating, Barnyardgrass [3, 9]: 4; Plant response rating, Ducksalad [4, 9]: 5; Plant response rating, Rice (rice (Oryza sativa); [7]): 2; Plant response rating, Rice (rice (Oryza sativa); [9]): 3; Plant response rating, S. Flatsedge [5, 7]: 9; Plant response rating, S. Flatsedge [5, 9]: 9
2 | Cc1cnc(-c2ccc(C(F)(F)F)cc2)nc1Cn1ccc(C(F)(F)C(F)(F)F)n1 [Compound 14] | 1 | 0 | 2 | 0 | 3 | 2 | 0 | 2 | 0 | 3 | 4 | 5 | 5 | 2 | 2 | 2 | 4 | 5 | 8 | 8 | Plant response rating, Blackgrass ([1]; Rate 250 g/ha, Preemergence): 0; Plant response rating, Blackgrass ([1]; Rate 500 g/ha, Postemergence): 3; Plant response rating, Blackgrass ([1]; Rate 500 g/ha, Preemergence): 3; Plant response rating, B. signalgrass ([2]; Rate 250 g/ha, Preemergence): 0; Plant response rating, B. signalgrass ([2]; Rate 500 g/ha, Postemergence): 4; Plant response rating, B. signalgrass ([2]; Rate 500 g/ha, Preemergence): 5; Plant response rating, Barnyardgrass [3, 9]: 6; Plant response rating, Ducksalad [4, 9]: 3; Plant response rating, Rice (rice (Oryza sativa); [7]): 4; Plant response rating, Rice (rice (Oryza sativa); [9]): 5; Plant response rating, S. Flatsedge [5, 7]: 8; Plant response rating, S. Flatsedge [5, 9]: 9
3 | Cc1cnc(-c2ccc(OC(F)(F)F)cc2)nc1Cc1cccc(C(F)(F)F)c1 [Compound 16] | 1 | 0 | 1 | 0 | 2 | 1 | 0 | 1 | 2 | 1 | 2 | 3 | 4 | 0 | 0 | 1 | 1 | 3 | 1 | 2 | Plant response rating, Blackgrass ([1]; Rate 250 g/ha, Preemergence): 2; Plant response rating, Blackgrass ([1]; Rate 500 g/ha, Postemergence): 3; Plant response rating, Blackgrass ([1]; Rate 500 g/ha, Preemergence): 4; Plant response rating, B. signalgrass ([2]; Rate 250 g/ha, Preemergence): 3; Plant response rating, B. signalgrass ([2]; Rate 500 g/ha, Postemergence): 1; Plant response rating, B. signalgrass ([2]; Rate 500 g/ha, Preemergence): 7; Plant response rating, Barnyardgrass [3, 9]: 4; Plant response rating, Ducksalad [4, 9]: 2; Plant response rating, Rice (rice (Oryza sativa); [7]): 1; Plant response rating, Rice (rice (Oryza sativa); [9]): 4; Plant response rating, S. Flatsedge [5, 7]: 2; Plant response rating, S. Flatsedge [5, 9]: 3
4 | CCc1cnc(-c2ccc(C(F)(F)F)cc2)nc1Cc1cccc(C(F)(F)F)c1 [Compound 22] | 5 | 8 | 8 | 9 | 9 | 5 | 5 | 7 | 9 | 7 | 4 | 5 | 6 | 3 | 4 | 6 | 3 | 5 | 3 | 9 | Plant response rating, Blackgrass ([1]; Rate 250 g/ha, Preemergence): 9; Plant response rating, B. signalgrass ([2]; Rate 250 g/ha, Preemergence): 9; Plant response rating, Rice (rice (Oryza sativa); [7]): 4; Plant response rating, S. Flatsedge [5, 7]: 8
5 | Cc1cnc(-n2cnc(C(F)(F)F)c2)nc1Cc1cccc(C(F)(F)F)c1 [Compound 44] | 4 | 5 | 5 | 6 | 7 | 3 | 6 | 4 | 8 | 5 | 3 | 4 | 4 | 4 | 7 | 9 | 5 | 7 | 9 | 9 | Plant response rating, Blackgrass ([1]; Rate 250 g/ha, Postemergence (so in the source)): 9; Plant response rating, B. signalgrass ([2]; Rate 250 g/ha, Postemergence as printed in head r139 (second section for compounds 26-50)): 8; Rice plant response rating (rice (Oryza sativa); [10]): 6; S. Flatsedge plant response rating [5, 10]: 9
